Experimental data taken from patent publication US20120302573A1, “METHODS OF INHIBITING PRO MATRIX METALLOPROTEINASE ACTIVATION” (priority 2011, published 2012).
Counter-ions that a name gives are not always drawn.

What was measured:
[1] = biological target: T1, full-length proMMP9(1-707) activation by catalytic MMP3 (Homo sapiens, UniProt P14780, R574P); assay: proMMP9/MMP3 P126 Activation Assay; type: biochemical; parameters: made in house; host or cells: E. coli (MMP3); conditions: proMMP9 from HEK293 cells
Protocol: The assay buffer employed was 50 mM Hepes, pH 7.5, 10 mM CaCl2, 0.05% Brij-35. DMSO was included at a final concentration of 2%, arising from the test compound addition. […] The reaction volume was 50 μL. […] Initial velocities were plotted by use of a four-parameter logistics equation (GraphPad Prism® software) for determination of IC50.

[2] = biological target: T2, proMMP9(20-445;ΔFnII) (SEQ ID NO:6) (Homo sapiens, UniProt P14780, DEL216-390); assay: ThermoFluor binding assay with proMMP9(20-445;ΔFnII)
T2 construct: amino acid pairs including: 29-215/391-444, 67-215/391-444, and 20-215/391-445, respectively; start methionine (N); made in house; host or cells: E. coli BL21(DE3) RIL
T2 sequence (P14780 with tags, fused parts or gaps DEL216-390): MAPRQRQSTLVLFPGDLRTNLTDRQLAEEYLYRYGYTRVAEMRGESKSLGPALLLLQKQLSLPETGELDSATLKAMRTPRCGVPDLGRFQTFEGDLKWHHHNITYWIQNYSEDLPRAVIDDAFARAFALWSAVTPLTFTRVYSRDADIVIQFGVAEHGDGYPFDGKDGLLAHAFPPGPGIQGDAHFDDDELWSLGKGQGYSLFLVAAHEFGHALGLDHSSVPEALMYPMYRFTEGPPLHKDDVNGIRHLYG
Protocol: (§1) The experiments were carried out using instruments available from Johnson & Johnson Pharmaceutical Research & Development, LLC. TF dye used in all experiments was […] (1,8-ANS) (Invitrogen: A-47).
(§2) Columns 12 and 24 were used as DMSO reference and contained no compound. […] Following compound dispense, protein and dye solutions were added to achieve the final assay volume of 3 μL.
(§3) Assay plates were robotically loaded onto a thermostatically controlled PCR-type thermal block and then heated from 40 to 90° C. at a ramp-rate of 1° C./min for all experiments. Fluorescence was measured by continuous illumination with UV light (Hamamatsu LC6) supplied via fiber optics and filtered through a band-pass filter (380-400 nm; >6 OD cutoff). Fluorescence emission of the entire 384-well plate was detected by measuring light intensity using a CCD camera (Sensys, Roper Scientific) filtered to detect 500±25 nm, resulting in simultaneous and independent readings of all 384 wells.
(§4) Thermodynamic parameters necessary for fitting compound binding for each proMMP were estimated by differential scanning calorimetry (DSC) and from ThermoFluor® data. The heat capacity of unfolding for each protein was estimated from the molecular weight and from ThermoFluor® dosing data.
The protein sample preparations included a desalting buffer exchange step via a PD-10 gravity column (GE Healthcare).

[3] = biological target: T3, proMMP9(67-444;ΔFnII) (SEQ ID NO:5) (Homo sapiens, UniProt P14780, DEL216-390); assay: ThermoFluor binding assay with proMMP9(67-444;ΔFnII)
T3 construct: amino acid pairs including: 29-215/391-444, 67-215/391-444, and 20-215/391-445, respectively; start methionine (N); made in house; host or cells: E. coli BL21(DE3) RIL
T3 sequence (P14780 with tags, fused parts or gaps DEL216-390): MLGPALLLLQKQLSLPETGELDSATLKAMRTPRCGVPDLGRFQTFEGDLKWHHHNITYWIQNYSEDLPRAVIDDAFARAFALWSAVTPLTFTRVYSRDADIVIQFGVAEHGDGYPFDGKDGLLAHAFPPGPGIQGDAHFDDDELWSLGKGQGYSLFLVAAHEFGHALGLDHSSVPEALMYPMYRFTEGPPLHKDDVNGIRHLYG
Protocol: as §1, §2, §3, §4
The protein sample preparations had to include a desalting buffer exchange step via a PD-10 gravity column (GE Healthcare).

[4] = biological target: T4, proMMP13(1-268) (SEQ ID NO:7) (Homo sapiens, UniProt P45452); assay: ThermoFluor binding assay with proMMP13(1-268)
T4 construct: 6x-histidine tag (C); made in house; host or cells: HEK293
Protocol: The ThermoFluor® (TF) assay is a 384-well plate-based binding assay that measures thermal stability of proteins (Biomol Screen 2001, 6, 429-40; Biochemistry 2005, 44, 5258-66). The experiments were carried out using instruments available from Johnson & Johnson Pharmaceutical Research & Development, LLC. TF dye used in all experiments was […] (1,8-ANS) (Invitrogen: A-47).
Compounds were arranged in a pre-dispensed plate (Greiner Bio-one: 781280), wherein compounds were serially diluted in 100% DMSO across 11 columns within a series. Columns 12 and 24 were used as DMSO reference and contained no compound. For multiple compound concentration-response experiments, the compound aliquots ([…]) were robotically predispensed directly into black 384-well polypropylene PCR microplates (Abgene: TF-0384/k) using a Cartesian Hummingbird liquid handler (DigiLab, Holliston, Mass.). Following compound dispense, protein and dye solutions were added to achieve the final assay volume of 3 μL. The assay solutions were overlayed with 1 μL of silicone oil (Fluka, type DC 200: 85411) to prevent evaporation.
as §3, with “wells. A single image with 20-sec exposure time was collected at each temperature, and the sum of the pixel intensity in a given area of the assay plate was recorded vs temperature and fit to standard equations to yield the Tm (J Biomol Screen 2001, 6, 429-40).” for “wells.”
as §4
The proMMP13(1-268) (SEQ ID NO:7) protein sample preparations included a desalting buffer exchange step via a PD-10 gravity column (GE Healthcare). The desalting buffer exchange was performed prior to diluting the protein to the final assay concentration of 3.5 μM. The concentration of proMMP13(1-268) (SEQ ID NO:7) was estimated spectrophotometrically based on a calculated extinction coefficient of ε280=37000 M^−1 cm^−1, a calculated molecular weight of 30.8 kDa, and calculated pI of 5.33. ThermoFluor® reference conditions were defined as follows: 100 μg/mL proMMP13(1-268) (SEQ ID NO:7), 25 μM 1,8-ANS, pH 7.0 Buffer (50 mM HEPES pH 7.0, 100 mM NaCl, 0.001% Tween-20, 2.5 mM MgCl2, 300 μM CaCl2). The thermodynamic parameters for proMMP13(1-268) (SEQ ID NO:7) are as follows: Tm (° C.)=67 (+/−0.1), ΔUH(Tm) (cal mol^−1)=107000(+/−5000), ΔUS(Tm) (cal mol^−1 K^−1)=318, ΔUCp (cal mol^−1 K^−1)=2600.

[5] = biological target: T1, full-length proMMP9(1-707) activation by catalytic MMP3; assay: ProMMP9/MMP3 DQ Gelatin Activation Assay;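 further: readout is fluorescence of quenched fluorescein gelatin cut by activated MMP9, 30 min activation at 37 °C, inhibition relative to DMSO-only controls with EDTA as blank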; type: biochemical; parameters: made in house; host or cells: COS-1 (proMMP9); E. coli (MMP3); conditions: proMMP9 from COS-1 cells; read-out: ProMMP9/MMP3 DQ gel, IC50
Protocol: Compounds were assessed for inhibition of proMMP9 activation by catalytic MMP3 using a quenched fluorescein gelatin substrate (DQ gelatin, Invitrogen D12054) that fluoresces upon cleavage by activated MMP9. The assay buffer employed was 50 mM Hepes, pH 7.5, 10 mM CaCl2, 0.05% Brij-35. DMSO was included at a final concentration of 0.2%, arising from the test compound addition. […] Test compounds in DMSO were diluted 250-fold in assay buffer at 4× the final concentration. The reaction volume was 12 μL, and all reactions were conducted in triplicate. […] The plate was sealed and incubated for 30 min at 37° C. […] Immediately following the 30 min incubation, 4 μL of 40 μg/ml DQ gelatin substrate was added (freshly diluted in assay buffer), and incubated for 10 min at room temperature. […] Reactivity of residual MMP3 towards DQ gelatin was minimal under these conditions. Percent inhibition of test compounds were determined from suitable positive (DMSO only in assay buffer) and negative (EDTA added prior to reaction initiation) controls. Plots of % inhibition vs. test compound concentration were fit to a four-parameter logistics equation (GraphPad Prism® software) for determination of IC50.

T1 sequence (P14780 20-707 R574P): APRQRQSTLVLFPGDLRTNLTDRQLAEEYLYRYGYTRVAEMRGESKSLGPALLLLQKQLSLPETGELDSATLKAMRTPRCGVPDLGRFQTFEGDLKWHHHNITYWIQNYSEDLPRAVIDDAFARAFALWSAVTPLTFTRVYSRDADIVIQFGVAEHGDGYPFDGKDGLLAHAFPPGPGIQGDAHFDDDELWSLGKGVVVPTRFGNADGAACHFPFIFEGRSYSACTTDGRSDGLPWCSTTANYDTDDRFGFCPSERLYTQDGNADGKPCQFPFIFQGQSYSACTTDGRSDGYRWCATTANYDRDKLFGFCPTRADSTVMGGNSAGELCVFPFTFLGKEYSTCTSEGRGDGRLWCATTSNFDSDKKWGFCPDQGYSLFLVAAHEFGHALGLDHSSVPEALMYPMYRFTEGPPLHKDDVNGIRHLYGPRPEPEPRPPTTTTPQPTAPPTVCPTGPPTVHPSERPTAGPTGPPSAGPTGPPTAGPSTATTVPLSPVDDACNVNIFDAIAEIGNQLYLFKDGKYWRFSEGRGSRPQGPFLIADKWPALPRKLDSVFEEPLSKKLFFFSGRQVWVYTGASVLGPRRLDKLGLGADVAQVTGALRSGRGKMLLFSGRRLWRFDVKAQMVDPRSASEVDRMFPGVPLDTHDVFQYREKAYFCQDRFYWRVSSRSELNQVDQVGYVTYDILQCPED

Row | SMILES | IC50 [1] [µM] | Kd [2] [µM] | Kd [3] [µM] | Kd [4] [µM] | IC50 [5] [µM]
1 | COc1ccc(F)cc1Nc1nc(-c2ccc(N3CCN(C4CC4)CC3)nc2)cs1 [Example 79, 4-(6-(4-Cyclopropylpiperazin-1-yl)pyridin-3-yl)-N-(5-fluoro-2-methoxyphenyl)thiazol-2-amine.TFA] | 1 | 21.4 | 3.93 | – | –
2 | COc1ccc(F)cc1Nc1nc(-c2sc(C)nc2C)cs1 [Example 5, (2′,4′-Dimethyl-[4,5′]bithiazolyl-2-yl)-(5-fluoro-2-methoxy-phenyl)-amine.HBr] | 0.71 | > 95 | 5.49 | 20 | –
3 | Cc1nc(N)sc1-c1csc(Nc2ccccc2OC(C)C)n1 [Example 3, N^2-(2-Isopropoxy-phenyl)-4′-methyl-[4,5′]bithiazolyl-2,2′-diamine.TFA] | 2 | 3.81 | 1.15 | – | –
4 | CC(=O)Nc1nc(C)c(-c2csc(Nc3cc(F)ccc3OC(C)C)n2)s1 [Example 12, N-[2-(5-Fluoro-2-isopropoxy-phenylamino)-4′-methyl-[4,5′]bithiazolyl-2′-yl]-acetamide] | 3.6 | 13.8 | 2.92 | 12 | –
5 | Cc1nc(C)c(-c2csc(Nc3ccccc3OC(C)C)n2)s1 [Example 2, (2′,4′-Dimethyl-[4,5′]bithiazolyl-2-yl)-(2-isopropoxy-phenyl)-amine] | 2.5 | > 95 | 55.3 | 42.5 | –
6 | COc1ccc(F)cc1Nc1nc(-c2sc(C3CCN(C)CC3)nc2C)cs1 [Example 78, N-(5-fluoro-2-methoxyphenyl)-4′-methyl-2′-(1-methylpiperidin-4-yl)-[4,5′-bithiazol]-2-amine.TFA] | 0.13 | 0.879 | 0.146 | – | –
7 | COc1ccc(F)cc1Nc1nc(-c2ccc3c(c2)ncn3C)cs1 [Example 41, (5-Fluoro-2-methoxy-phenyl)-[4-(1-methyl-1H-benzoimidazol-5-yl)-thiazol-2-yl]-amine] | 1.9 | 1.94 | – | – | –
8 | COc1ccc(Br)cc1Nc1nc(-c2sc(N)nc2C)cs1 [Example 20, N^2-(5-Bromo-2-methoxy-phenyl)-4′-methyl-[4,5′]bithiazolyl-2,2′-diamine.TFA] | 3.3 | 2.15 | 0.414 | – | –
9 | COc1ccc(Br)cc1Nc1nc(-c2sc(C)nc2C)cs1 [Example 27, (5-Bromo-2-methoxy-phenyl)-(2′,4′-dimethyl-[4,5′]bithiazolyl-2-yl)-amine.TFA] | 3.1 | 49.9 | – | – | –
10 | Cc1nc(C)c(-c2csc(Nc3ccccc3OC(F)(F)F)n2)s1 [Example 14, (2′,4′-Dimethyl-[4,5′]bithiazolyl-2-yl)-(2-trifluoromethoxy-phenyl)-amine] | 3.6 | > 95 | – | 9.12 | –
11 | COc1ccc(F)cc1Nc1nc(-c2sc(NC(C)=O)nc2C)c(Br)s1 [Example 18, N-[5-Bromo-2-(5-fluoro-2-methoxy-phenylamino)-4′-methyl-[4,5′]bithiazolyl-2′-yl]-acetamide.TFA] | 2.6 | 2.89 | 0.376 | – | –
12 | COc1ccc(F)cc1Nc1nc(-c2c(C)nc(C)n2C)cs1 [Example 42, (5-Fluoro-2-methoxy-phenyl)-[4-(2,3,5-trimethyl-3H-imidazol-4-yl)-thiazol-2-yl]-amine] | 5 | 28.8 | – | 5.35 | –
13 | CCc1ccccc1Nc1nc(-c2sc(NC(C)=O)nc2C)cs1 [Example 62, N-[2-(2-Ethyl-phenylamino)-4′-methyl-[4,5′]bithiazolyl-2′-yl]-acetamide] | – | 8.29 | 2.46 | 47.2 | 3.4
14 | COc1ccccc1Nc1nc(-c2oc(C)nc2C)cs1 [Example 44, [4-(2,4-Dimethyl-oxazol-5-yl)-thiazol-2-yl]-(2-methoxy-phenyl)-amine.TFA] | – | > 95 | 44.7 | > 95 | 11.9
15 | CC(C)Oc1ccccc1Nc1nc(-c2cccnc2)cs1 [Example 15, (2-Isopropoxy-phenyl)-(4-pyridin-3-yl-thiazol-2-yl)-amine] | 2.5 | > 95 | 43.3 | – | –
16 | COc1ccc(OC)c(Nc2nc(-c3sc(NC(C)=O)nc3C)cs2)c1 [Example 61, N-[2-(2,5-Dimethoxy-phenylamino)-4′-methyl-[4,5′]bithiazolyl-2′-yl]-acetamide] | – | 5.07 | 1.06 | 21 | 1.6
17 | COc1ccc(F)cc1Nc1nc(-c2sc(C)nc2C)c(C)s1 [Example 77, N-(5-fluoro-2-methoxyphenyl)-2′,4′,5-trimethyl-[4,5′-bithiazol]-2-amine.HBr] | 3.8 | > 77 | 20.6 | – | –
18 | CCOc1ccccc1Nc1nc(-c2cn3ccccc3n2)cs1 [Example 74, (2-Ethoxy-phenyl)-(4-imidazo[1,2-a]pyridin-2-yl-thiazol-2-yl)-amine] | – | 7.89 | 66.1 | > 95 | 21.1
19 | CCOc1ccccc1Nc1nc(-c2c(C)nc3ncccn23)cs1 [Example 52, (2-Ethoxy-phenyl)-[4-(2-methyl-imidazo[1,2-a]pyrimidin-3-yl)-thiazol-2-yl]-amine] | – | 7.27 | 9.09 | 13.2 | 3.3
